According to ChEMBL document CHEMBL3886958, “Substituted B-amino acid derivatives as CXCR3 receptor antagonists” (2016):
pIC50: −log10 of the molar value.

Target: T1, C-X-C chemokine receptor type 3 (Homo sapiens, UniProt P49682)
T1 sequence (P49682 whole entry): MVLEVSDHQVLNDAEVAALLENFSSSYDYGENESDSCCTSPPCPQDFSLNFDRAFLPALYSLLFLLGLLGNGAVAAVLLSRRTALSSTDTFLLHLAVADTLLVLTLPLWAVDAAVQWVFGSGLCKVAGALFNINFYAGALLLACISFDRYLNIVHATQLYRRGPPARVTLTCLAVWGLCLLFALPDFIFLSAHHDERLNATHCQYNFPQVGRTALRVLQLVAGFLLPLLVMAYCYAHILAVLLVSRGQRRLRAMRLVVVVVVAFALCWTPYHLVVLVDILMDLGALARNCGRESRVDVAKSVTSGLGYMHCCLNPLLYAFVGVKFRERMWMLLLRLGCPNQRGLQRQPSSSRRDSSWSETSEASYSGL

In order of rising pIC50:
1. CCOC(=O)CC(c1ccc2c(c1)CCO2)N(Cc1ccc(OCCN2C(=O)CCC2=O)c(OC)c1)CC(C)C (centres undefined)  6.16
2. CCCN(Cc1ccc(OCCN2C(=O)CCC2=O)c(OC)c1)[C@H](C(=O)O)c1ccc(Cl)c(Cl)c1  6.31
3. COc1cc(CN(CC2CCCC2)C(C(=O)O)c2ccc(Cl)cc2)ccc1OCCN1C(=O)CCC1=O (centres undefined)  6.33
4. O=C(O)CC(c1ccc(Cl)c(Cl)c1)N(Cc1ccc(OCCN2C(=O)CCC2=O)c(F)c1)CC1CCCCC1 (centres undefined)  6.36
5. CCN(Cc1ccc(OCCN2C(=O)CCC2=O)c(OC)c1)C(c1ccc(Cl)cc1)C(C)(C)C(=O)O (centres undefined)  6.53
6. COc1cc(CN(CC2CCCCC2)[C@@H](CC(=O)O)c2ccc(Cl)c(Cl)c2)ccc1OCCN1C(=O)CN(C)C1=O  6.73
7. COc1cc(CN(CC2CCCC2)C(CC(=O)O)c2ccc(Cl)cc2)ccc1CCCN1C(=O)CCC1=O (centres undefined)  6.75
8. CCCN(Cc1ccc(OCCN2C(=O)CCC2=O)c(CC)c1)C(CC(=O)O)c1ccc(Cl)c(Cl)c1 (centres undefined)  7.09
9. COc1cc(CN(CC2CC2)C(CC(=O)O)c2ccc(Cl)c(F)c2)ccc1SCCN1C(=O)CCC1=O (centres undefined)  7.40
